# Laboratory results published in ChEMBL document CHEMBL1130490, “The Role of 4-phosphonodifluoromethyl- and 4-phosphono-phenylalanine in the selectivity and cellular uptake of SH2 domain ligands” (Bioorg Med Chem Lett, 1997).
# Where a SMILES comes first, the peptide text is derived from it. [ ]: non-standard residue; d: D form. pY = N[C@@H](Cc1ccc(OP(=O)(O)O)cc1)C(=O)O
# How the values were obtained:
# [1] = molecular target: T1, Tyrosine-protein kinase ABL1 (Homo sapiens, UniProt P00519); experiment: Inhibition of [35S]-labeled SH2-GST Abl binding to the phospho-PDGF receptor intracellular domain
# [2] = molecular target: T1, Tyrosine-protein kinase ABL1; experiment: Radioligand displacement assay for the binding of [125I]Glu-Pro-Gln-pTyr-Glu-Glu-Ile-Pro-Ile-Tyr-Leu to ABL SH2 domain
# Mus musculus = organism: Mus musculus; experiment: Uptake rate for compound into Balbc3T3 cells normalized to 100 uM was measured; type: functional
# T1 sequence (P00519 whole entry, the tested form may be a part): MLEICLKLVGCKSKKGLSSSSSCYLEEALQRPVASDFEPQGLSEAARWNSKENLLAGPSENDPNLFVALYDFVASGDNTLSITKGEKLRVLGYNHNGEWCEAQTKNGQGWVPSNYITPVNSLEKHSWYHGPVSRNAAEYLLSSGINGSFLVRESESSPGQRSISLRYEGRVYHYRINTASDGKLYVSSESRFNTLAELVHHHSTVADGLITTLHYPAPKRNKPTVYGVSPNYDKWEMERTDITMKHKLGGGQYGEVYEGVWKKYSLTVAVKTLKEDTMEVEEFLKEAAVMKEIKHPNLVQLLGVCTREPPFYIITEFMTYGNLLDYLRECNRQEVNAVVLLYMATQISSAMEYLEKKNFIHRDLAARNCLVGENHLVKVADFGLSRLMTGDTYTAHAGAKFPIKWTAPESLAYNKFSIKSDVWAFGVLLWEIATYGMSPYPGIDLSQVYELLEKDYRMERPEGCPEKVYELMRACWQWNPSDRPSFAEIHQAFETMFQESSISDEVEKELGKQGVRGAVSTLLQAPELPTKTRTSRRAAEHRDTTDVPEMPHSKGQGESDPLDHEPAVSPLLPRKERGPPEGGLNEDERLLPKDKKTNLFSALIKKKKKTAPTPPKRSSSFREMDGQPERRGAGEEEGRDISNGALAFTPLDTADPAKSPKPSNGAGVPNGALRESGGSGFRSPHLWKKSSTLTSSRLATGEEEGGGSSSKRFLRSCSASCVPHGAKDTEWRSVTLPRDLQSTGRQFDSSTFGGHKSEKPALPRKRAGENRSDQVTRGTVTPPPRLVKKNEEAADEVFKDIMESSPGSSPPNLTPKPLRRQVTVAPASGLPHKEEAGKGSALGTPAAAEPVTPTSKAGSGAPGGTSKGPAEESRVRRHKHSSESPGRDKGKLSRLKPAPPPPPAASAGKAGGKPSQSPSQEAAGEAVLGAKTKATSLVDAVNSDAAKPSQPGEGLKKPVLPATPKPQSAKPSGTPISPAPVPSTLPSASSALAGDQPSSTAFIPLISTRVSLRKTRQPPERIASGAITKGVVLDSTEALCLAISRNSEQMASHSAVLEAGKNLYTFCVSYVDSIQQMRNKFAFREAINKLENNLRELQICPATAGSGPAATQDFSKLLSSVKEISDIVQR
IC50 [1],IC50 [2],Compound,Uptake rate (nM min-1 cm**-2) (Mus musculus)
15 µM,7.9 µM,CC[C@H](C)[C@H](NC(=O)[C@H](CCC(=O)O)NC(=O)[C@H](CCC(=O)O)NC(=O)[C@H](Cc1ccc(OP(=O)(O)O)cc1)NC(C)=O)C(=O)N[C@@H](CCC(=O)O)C(=O)O (Ac-[pY]EEIE-OH),–
–,–,CCOP(=O)(OCC)C(F)(F)c1ccc(C[C@H](NC(C)=O)C(=O)N[C@@H](CCC(=O)OC(C)(C)C)C(=O)N(C)CCCC2CCCCC2)cc1,3.2
–,–,CC[C@H](NC(=O)[C@H](Cc1ccc(C(F)(F)P(=O)(O)OCOC(=O)C(C)(C)C)cc1)NC(C)=O)C(=O)N(C)CCCC1CCCCC1,0.01
–,–,CC[C@H](NC(=O)[C@H](Cc1ccc(P(=O)(OCOC(=O)C(C)(C)C)OCOC(=O)C(C)(C)C)cc1)NC(C)=O)C(=O)N(C)CCCC1CCCCC1,6.6
–,–,CCOP(=O)(OCC)C(F)(F)c1ccc(C[C@H](NC(C)=O)C(=O)N[C@@H](CCC(=O)O)C(=O)N(C)CCCC2CCCCC2)cc1,> 0.002
–,–,CCOP(=O)(OCC)c1ccc(C[C@H](NC(C)=O)C(=O)N[C@@H](CC)C(=O)N(C)CCCC2CCCCC2)cc1,0.092
